Where a name gives a salt, the structure may show the parent alone.
test system: MYH11 promoter-driven luciferase activity; assay: High-throughput screening, MYH11-Nluc-2A-Tom reporter human ES cell line, luciferase assay; format: cell-based; conditions: small molecules added day 4-14; selected when normalized reads > average+3×STDEV
Description: FIGS. 1A-1C depict a schematic of high-throughput screening. […] The cells were passaged at day 4 and seeded on the 96-well plate for screening (2×10^6 cells/plate). After the reporter cell line was differentiated into mesoderm, small molecules were added to the cells from day 4 to day 14. FIG. 1B depicts the results of the screening in two batches. The luciferase assay results of individual small molecules were normalized to the average reads of all samples for each batch. The small molecules were selected for further analysis when the normalized reads were greater than “average+3×STDEV”. FIG. 1C depicts optimizing the concentration of the selected small molecules.
The cells were treated with 50 ng/ml FGF2 and 20 ng/ml BMP4 for another two days. The cells were passaged at day 4 and seeded on the 96-well plate for screening (2×10^6 cells/plate). The compounds were added from day 4-14. The Luciferase substrate (1000× dilution) (Nano-Glo Luciferase Assay system, Promega) was added to the medium for 15 min and luminescence was measured. An increase in luminescence indicates increased MYH11 expression, which is an indicator of the contractile smooth muscle cell phenotype. The Thomson custom stem cell Modulator 1, GSK-kinase inhibitor library, SellekChem Kinase inhibitor library, Analyticon NATx library, Prestwick Chemical Library, GlaxoSmithKline Protein Kinase Inhibitors, and part of Enamine Representative Diversity library were used for screening.
High-throughput screening directs contractile smooth muscle cell differentiation—The construction of the MYH11-NLuc-tdTomato human ES cell reporter line generated by CRISPR/Cas9 technology is described in FIGS. 6A-6H. The reporter cell line was differentiated into mesoderm in E8BAC medium (Zhang et al., 2017) for two days and treated with FGF2 and BMP4 to further mature mesoderm for another two days. The cells were then passaged into a 96-well plate and exposed to small molecules for 10 days using a customized robotic workstation (FIG. 1A). The workstation was designed through collaboration with TECAN, which enables us to perform the automatic high-throughput screening at specific time point and in long-term. The medium were changed every other day and the small molecules were added during the feeding. […] We then validated these hits and optimized their concentration.

Compound	promotes MYH11+ SMC differentiation (increased MYH11 promoter-driven luciferase activity)
CNC(=O)c1cc(Oc2ccc(NC(=O)Nc3cc(C(C)(C)C)nn3-c3ccc4ncccc4c3)c(F)c2)ccn1 [DCC-2036, DCC-2036 (Rebastinib)]	promotes MYH11^+ SMC differentiation
CNC(=O)c1cc(Oc2ccc(NC(=O)Nc3ccc(Cl)c(C(F)(F)F)c3)cc2)ccn1 [sorafenib, Sorafenib (Nexavar)]	promotes MYH11^+ SMC differentiation
C[C@@H](N)[C@H]1CC[C@H](C(=O)Nc2ccncc2)CC1 [Y27632]	promotes MYH11^+ SMC differentiation
CC(C(=O)O)c1ccc(-c2ccccc2)c(F)c1 (stereo not shown) [flurbiprofen, Flurbiprofen]	promotes MYH11^+ SMC differentiation
N[C@@H](CC(=O)N1CCn2c(nnc2C(F)(F)F)C1)Cc1cc(F)c(F)cc1F [sitagliptin, Sitagliptin]	promotes MYH11^+ SMC differentiation
CC(=O)[N-]S(=O)(=O)c1ccc(N)cc1.O.[Na+] [sulfacetamide sodic hydrate, Sulfacetamide sodic hydrate]	promotes MYH11^+ SMC differentiation
CCO.N#CC(=C(/N)Sc1ccccc1N)/C(C#N)=C(\N)Sc1ccccc1N [UO126, U0126-EtOH]	promotes MYH11^+ SMC differentiation
NC(=O)c1sc(-n2cnc3ccccc32)cc1OCc1ccccc1Br [GSK1023156A]	promotes MYH11^+ SMC differentiation
CC#CCn1c(N2CCC[C@@H](N)C2)nc2c1c(=O)n(Cc1nc(C)c3ccccc3n1)c(=O)n2C [BI-1356]	promotes MYH11^+ SMC differentiation
O=C(Nc1ccc(OC(F)(F)F)cc1)c1sccc1NCc1ccnc2ccccc12 [OSI-930]	promotes MYH11^+ SMC differentiation
Nc1ccc(S(=O)(=O)Nc2ccnn2-c2ccccc2)cc1 [sulfaphenazole, Sulfaphenazole]	promotes MYH11^+ SMC differentiation
CC1=C(/C=C/C(C)=C/C=C/C(C)=C/C(=O)O)C(C)(C)CCC1 [retinoic acid, All-Trans Retinoic Acid]	promotes MYH11^+ SMC differentiation
N[C@@H]1C[C@H]1c1ccccc1 [tranylcypromine hydrochloride, Tranylcypromine hydrochloride]	promotes MYH11^+ SMC differentiation
COc1cc2ncnc(Nc3ccc4c(cnn4Cc4ccccc4)c3)c2cc1OC [GSK282449A]	promotes MYH11^+ SMC differentiation
Cc1ccc(NC(=O)c2ccc(CN3CCN(C)CC3)cc2)cc1Nc1nccc(-c2cccnc2)n1 [imatinib, Imatinib Mesylate]	promotes MYH11^+ SMC differentiation
CN(C)C(=O)OC1CNC(C#Cc2cc3ncnc(Nc4ccc(OCc5cccc(F)c5)c(Cl)c4)c3s2)C1 (stereo not shown) [GSK182497A]	promotes MYH11^+ SMC differentiation
NS(=O)(=O)c1cc2c(cc1C(F)(F)F)NCNS2(=O)=O [hydroflumethiazide, Hydroflumethiazide]	promotes MYH11^+ SMC differentiation
COC(=O)Nc1nc2ccc(Sc3ccc(NC(=O)Nc4cc(C(F)(F)F)ccc4F)cc3)cc2[nH]1 [GSK607049C]	promotes MYH11^+ SMC differentiation
O=C(O)C(Cc1c[nH]c2ccccc12)N1C(=O)c2ccccc2C1=O (stereo not shown) [RG108]	promotes MYH11^+ SMC differentiation

test system: Human pluripotent stem cell cells (H1); assay: Mesoderm differentiation of H1 cells in E8BAC medium; format: cell-based; conditions: CHIR99021 increased to 3 μM (from 1 μM)
Description: The cells reached 80-90% confluency two days later. At the day of the differentiation, ES cells were dissociated by […] (Invitrogen) for 3-5 min at 37 ° C. The cells were plated on a […]-coated plate at 1:4 ratios (1×10^5 cells/cm2). […] An increased CHIR99021 concentration of 3 μM decreased cell proliferation at 36 hours but increased MYH11 expression. At 36 hours, the cells were passaged and seeded on a new […]-coated plate (1.6×10^4 cells/cm2). The low cell density is critical for the differentiation. […] […] (E6 medium+5 μM RESV) medium supplemented with RepSox (25 μM), was then used to further mature SMCs from day 12 to 24. Cells were split (1×10^5 cells/cm2) at day 16 and further differentiated until day 24. The cells can be cryopreserved at day 16 or day 24. […] From day 0-4: medium was changed every day. From day 2-24: medium was changed every other day. For day 1 and day 8-24, 1.5×volumes of medium, compared to the normal volume used in the well, were used.

Compound	MYH11 expression	cell proliferation at 36 hours
Cc1c[nH]c(-c2cnc(NCCNc3ccc(C#N)cn3)nc2-c2ccc(Cl)cc2Cl)n1 [CHIR99021]	increased	decreased

test system: MYH11-Tom+ cells; assay: Flow cytometric analysis of MYH11-Tom+ cells in SMC differentiation; format: cell-based, human; conditions: with RepSox 25 μM; DAPT 20 μM, DBZ 10 μM, RO04929097 10 μM; day 10-16
Description: Data are represented as mean±standard deviation (SD). […] Scale bar=1 mm. […] Scale bar=50 μm. […] Data are represented as mean±SD. Student's t-test, *: P<0.05, n=3.
FIGS. 7A-7G show the target of RepSox. […] Cells were treated with RepSox (25 μM) or SiRNA. […] Cells were treated with RepSox (25 μM) or SiRNA. […] During the smooth muscle cells differentiation, cells were treated with or without RepSox from day 10-11. […] During the smooth muscle cells differentiation, cells were treated with RepSox for 1 or 20 hours at day 12. […] Cells were treated with RepSox and non-targeting control (NT)/SiRNA at day 10. The RNA was isolated at day 14.
Optimized smooth muscle cell differentiation—Human pluripotent stem cell cells (H1) were cultured in E8 medium on a […]™-coated plate. To achieve the best differentiation results, ES cells were split using EDTA at 1:4 ratios two days before the differentiation. The cells reached 80-90% confluency two days later. At the day of the differentiation, ES cells were dissociated by ACCUTASE™ (Invitrogen) for 3-5 min at 37 ° C. The cells were plated on a […]™-coated plate at 1:4 ratios (1×10^5 cells/cm2). […] An increased CHIR99021 concentration of 3 μM decreased cell proliferation at 36 hours but increased MYH11 expression. At 36 hours, the cells were passaged and seeded on a new […]™-coated plate (1.6×10^4 cells/cm2). The low cell density is critical for the differentiation. A cell density of 1.0-4.0×10^4 cells/cm2 for different cell lines can be tested, such that 100% cell confluence will be achieved at day 6, which gives rise to the best differentiation efficiency. The cells were treated with E6T medium (E8 medium minus FGF2 but still containing 1.7 ng/ml TGF-β1) for 18 hours to induce the transient and medium level expression of MEOX1. E5F medium (E8 medium minus insulin and TGF-β1, but still containing 100 ng/ml FGF2) was used to suppress MEOX1 expression for another 5 days (days 3-8). Next, the cells were treated with E6FVR medium (E6 medium with 100 ng/ml FGF2, 50 ng/ml VEGFA, and 5 μM RESV, a NOTCH agonist) to induce SMC progenitors from day 8-12. E6R (E6 medium+5 μM RESV) medium supplemented with RepSox (25 μM), was then used to further mature SMCs from day 12 to 24. Cells were split (1×10^5 cells/cm2) at day 16 and further differentiated until day 24. The cells can be cryopreserved at day 16 or day 24. For P-SMCs, T-SMCs, and PT-SMCs, RepSox was replaced by PDGF-BB (10 ng/ml), TGF-β1 (1.7 ng/ml), or combination of PDGF-BB and TGF-β1, respectively, from day 12 to 24. From day 0-4: medium was changed every day. From day 2-24: medium was changed every other day. For day 1 and day 8-24, 1.5×volumes of medium, compared to the normal volume used in the well, were used. […]

Compound	effect on RepSox improvement of MYH11-Tom+ cell differentiation
C[C@H](NC(=O)Cc1cc(F)cc(F)c1)C(=O)N[C@@H]1C(=O)N(C)c2ccccc2-c2ccccc21 [DBZ]	abolished
CC(C)(C(=O)NCC(F)(F)C(F)(F)F)C(=O)N[C@@H]1C(=O)Nc2ccccc2-c2ccccc21 [R04929097]	abolished
C[C@H](NC(=O)Cc1cc(F)cc(F)c1)C(=O)N[C@H](C(=O)OC(C)(C)C)c1ccccc1 [DAPT]	abolished

test system: endothelium repair; assay: not given; conditions: Prasad 2005; Zheng 2014; cited from earlier work

Compound	effect on endothelium repair
CO[C@H]1C[C@@H]2CC[C@@H](C)[C@@](O)(O2)C(=O)C(=O)N2CCCC[C@H]2C(=O)O[C@H]([C@H](C)C[C@@H]2CC[C@@H](O)[C@H](OC)C2)CC(=O)[C@H](C)/C=C(\C)[C@@H](O)[C@@H](OC)C(=O)[C@H](C)C[C@H](C)/C=C/C=C/C=C/1C [rapamycin]	suppressed

test system: intimal hyperplasia; assay: not given; conditions: DeRose 1999; Gulkarov 2009; Sawada 2000; cited from earlier work

Compound	inhibition of intimal hyperplasia in previous studies
C[C@@H](N)[C@H]1CC[C@H](C(=O)Nc2ccncc2)CC1 [Y27632]	inhibit intimal hyperplasia
CCO.N#CC(=C(/N)Sc1ccccc1N)/C(C#N)=C(\N)Sc1ccccc1N [UO126, U0126-EtOH]	inhibit intimal hyperplasia
CC1=C(/C=C/C(C)=C/C=C/C(C)=C/C(=O)O)C(C)(C)CCC1 [retinoic acid, All-Trans Retinoic Acid]	inhibit intimal hyperplasia
